Entries after “also recorded” stand apart in the source; their conditions may differ. Where two headings read alike, the source gives them in different places.
How the values were obtained:
[1] = system: platinum-resistant ovarian cancer cell line 2008-c13; experiment: Flow cytometry (propidium iodide) of apoptosis / sub-G1 fraction; format: cell-based, human; conditions: for sub-G1 fraction (hypodiploid cells): 48 hours and 72 hours of drug exposure, same doses
Description: To determine the effectiveness of platinum-polysaccharide conjugate (PC) against platinum-resistant ovarian cancer cells, 2008-c13 cells ([…]) were treated with platinum-polysaccharide conjugate (PC). The cells were trypsinized and centrifuged at 2500 rpm for 5 min. After being washed with 1×PBS two times, cells were fixed with 70% ethanol overnight, washed twice with 1×PBS, and resuspended in 1 mL of propidium iodide (PI) solution (1×10^6 cells/mL). RNase (20 μg/mL) solution was added followed by 1 mL of propydium iodide solution (PI, 50 μg/mL in PBS). Samples were incubated at 37° C. for 15 min, and PI fluorescence was analyzed using a EPIS XL analyzer.
This effect was tested by flow cytometry in the 2008.C13 cell line after 48 hours and 72 hours of drug exposure.

[2] = system: platinum-resistant ovarian cancer cell line 2008-c13; experiment: TUNEL assay of apoptosis; format: cell-based, human; conditions: 48 hours, compared at each dose, P<0.05
Text: DNA fragmentation typical of apoptosis was further determined by the TUNEL assay in three independent experiments.

[3] = system: PARP / caspase-3 cleavage in 2008-c13 cells; experiment: Western blot of cleaved PARP and cleaved caspase-3; format: cell-based, human; conditions: 48 hours; for cleaved PARP expression: 2008-c13 cells; for cleaved caspase-3 expression: 2008.C13 cells
Description: The effect of the platinum-polysaccharide conjugate of Example 1 on tumor cells was analyzed by treating 2008-c13 […] cells with the conjugate, then analyzing the effects on cellular proteins through a Western blot (FIG. 11).
To determine whether apoptosis is induced through a caspase-3-dependent pathway followed by the cleavage of PARP, levels of cleaved caspase-3 and PARP, which form after caspase-3 activation, were determined by Western blot analysis.

2008.C13 cells = experiment: Flow cytometric cell-cycle analysis (S-phase arrest); format: cell-based, human; conditions: 48 hours
[4] = system: p21 and cyclin A in 2008.C13 cells; experiment: p21 and cyclin A expression (Northern/Western blot); format: cell-based, human; conditions: 48 hours of drug exposure
Description: To elucidate the mechanism underlying S-phase arrest caused by CDDP and PC in 2008.C13 cells, the expression of p21 and cyclin A, which are important for cell-cycle regulation in the S phase, was examined in 2008.C13 cells after 48 hours of drug exposure.

[5] = In vitro determination of relaxivity (T1, 7.0 T); format: physicochemical; conditions: in water, Gd 0.01-0.08 mM
Description: Solutions of Gd-EDTA-chitosan and Gd-DTPA were prepared in water at Gd concentrations of 0.01 mM, 0.02 mM, 0.04 mM and 0.08 mM. Spin lattice (T1) relaxivity was measured at 7.0 T. R1 in mM^−1s^−1 was obtained from linear last-squares determination of the slopes of 1/T1 vs [Gd] plot. R1 was calculated as 3.61 and […] for Gd-DTPA and Gd-EDTA-chitosan, respectively.

[6] = system: platinum-resistant ovarian cancer cells (2008-c13)
Description: All cells were cultured at 37° C. in a humidified atmosphere containing 5% CO2 in RPMI 1640 medium supplemented with 10% fetal bovine serum and glutamine (2 mM). 2008 or 2008.C13 cells were seeded into 96-well plates (4,000 cells/well) and maintained in RPMI 1640 medium for 24 hours. […] Controls were treated with DMSO or PBS. After cells were treated, their growth and viability were determined by incubating the cells for 1 to 2 hours at 37° C. with 20 μL of tetrazolium substrate. Absorbence was measured at 450 nm using a 96-well Synergy HT-microplate reader (Biotek, Winooski, Vt.) The rate of cell growth inhibition was expressed as a percentage as follows: […]. The experiments were repeated separately three times. Methylene tetrazolium (MTT) dye assay determined the amount of viable cells. Cellular protein content was determined by Lowry assay. The drug concentration that inhibits 50% of cell growth (IC-50) was then determined Data are expressed as the percentage differences compared with controls (OD of cells after treatment/OD of cells without treatment).

[7] = system: breast cancer cells (13762NF) tumor; experiment: Anticancer effect in breast tumor-bearing rat model; format: in vivo; conditions: for tumor volume: single dose (Pt 10 mg/kg or chondroitin only)
Description: Female Fischer 344 rats (125-175 g) were inoculated with breast cancer cells (13762NF, 10^6 cells/rat, s.c. in the hind leg). After 15-20 days and a tumor volume of […], the breast tumor-bearing rats were administered either the platinum-chondroitin (Platinum-polysaccharide) conjugate (PC) or chondroitin alone at doses of 10 mg Pt/kg (platinum (IV)-polysaccharide) or 45 mg/kg (chondroitin). Tumor volumes and body weight were recorded daily for sixty days. Tumor volumes were measured as [length (l)×width (w)×thickness (h)]/2. Loss of body weight of 15% is considered a chemical-induced toxic effect. […] After treatment with platinum-polysaccharide conjugate, tumor tissues were dissected and embedded in […]. The tumor tissue was fixed in paraffin, and stained with hematoxylin and eosin for histological examinations.

Row | Compound | sub-G1 fraction (hypodiploid cells) [1] | apoptotic cells by TUNEL [2] | cleaved PARP expression [3] | cleaved caspase-3 expression [3] | cyclin A expression [4] | p21 expression [4] | R1 (spin lattice T1 relaxivity) [5] | tumor volume ([7]; 24 hours) | tumor volume ([7]; 94 hrs) | also measured
1 | N.N.[Cl][Pt][Cl] [CDDP, cis-diamminedichloroplatinum (II), reference compound] | dose-dependent increase | dose-dependent increase | increased from 2.5 μg/mL to 20 μg/mL | expressed in a pattern similar to that of PARP | Neither p21 nor cyclin A expression was related to the extent of S-phase arrest | Neither p21 nor cyclin A expression was related to the extent of S-phase arrest | – | – | – | maximal S-phase arrest (2008.C13 cells; 20 μg/mL): 84.8%
2 | O=C([O-])CN(CCN(CC(=O)[O-])CC(=O)O)CCN(CC(=O)[O-])CC(=O)O.[Gd+3] [Gd-DTPA, reference compound] | – | – | – | – | – | – | 3.61 mM⁻¹ s⁻¹ | – | – | –
3 | Cis-1,2-DACH-dichloro-Pt (IV)-aspartate-chondroitin [PC] | more pronounced increase in the sub-G1 fraction; also recorded: substantially more sub-G1 cells than did CDDP | many more cells experiencing apoptosis; also recorded: much higher levels of apoptosis | significantly increased; also recorded: cleaved PARP expression induced by high-dose (20 μg/mL) PC appeared to be lower than that induced by low-dose PC | comparable to that in the CDDP-treated group, except for the lower expression seen at 5 μg/mL | up-regulated after high-dose PC treatment and was maintained at a low level after low-dose PC treatment | up-regulated with maximal S-phase arrest after low-dose PC treatment, but not after high doses; also recorded: increased p21 expression | – | 5.2661 cm^3 | 0.8782 cm^3 | enhancement of tumor killing compared with cisplatin ([6]; 2.5 μg/mL, 48 hours): 5.9 times; enhancement of tumor killing compared with cisplatin ([6]; 2.5 μg/mL, 72 hours): 9.3 times; enhancement of tumor killing compared with cisplatin ([6]; 5 μg/mL, 48 hours): 4.6 times; enhancement of tumor killing compared with cisplatin ([6]; 5 μg/mL, 72 hours): 1.5 times; cell growth inhibition (in words) ([6]; low doses): significantly inhibit cell growth; apoptotic effect by flow cytometry ([1]; 2.5 and 5 μg/mL, compared to cisplatin): significantly enhanced the apoptotic effect; effect against breast tumor growth (in words) ([7]; 10 mg Pt/kg): effective in vivo against breast tumor growth; tumor necrosis (H & E histology) ([7]; 94 hrs post-administration): Extensive necrosis; S-phase arrest (2008.C13 cells; 2.5 μg/mL): 90.3%; S-phase arrest (2008.C13 cells; 5 μg/mL): 90.1%
4 | Gd-EDTA-chitosan | – | – | – | – | – | – | 9.59 mM⁻¹ s⁻¹ | – | – | –
5 | chondroitin [reference compound] | – | – | – | – | – | – | – | 5.2591 cm^3 | 14.3622 cm^3 | –

— patent publication US20120277409A1, “METAL-POLYSACCHARIDE CONJUGATES: COMPOSITIONS, SYNTHESIS AND METHODS FOR CANCER THERAPY” (priority 2007, published 2012)
